This note sets out measurements from US11053253B2, “Macrocyclic compounds for treatment of medical disorders” (Achillion Pharmaceuticals, Inc., priority 2017, dated 2021).

By pIC50 is commonly meant −log10 of the IC50, conventionally taken in molar units.

pIC50: −log10 of the molar value. Some results are limits rather than exact numbers.

Sequence of Human Factor D (P00746 26-253): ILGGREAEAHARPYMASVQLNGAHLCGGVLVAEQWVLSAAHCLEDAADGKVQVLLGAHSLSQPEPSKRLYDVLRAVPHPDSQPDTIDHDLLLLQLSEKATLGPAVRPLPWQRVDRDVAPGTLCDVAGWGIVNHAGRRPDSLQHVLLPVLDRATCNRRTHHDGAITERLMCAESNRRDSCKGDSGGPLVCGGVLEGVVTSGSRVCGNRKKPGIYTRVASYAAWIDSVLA

This assay concerns the target Human Factor D (Homo sapiens (Human), UniProt P00746). The assay can be described thus: Human Factor D Assay. It counts as biochemical. The settings on record: Human Factor D 80 nM, substrate Z-L-Lys-SBzl, DTNB, A405; read-out: IC50 (Stars). On the procedure: Example 2. Human Factor D Assay
Human Factor D (purified from human serum, Complement Technology, Inc.) at 80 nM final concentration is incubated with test compound at various concentrations for 5 min at room temperature in 50 mM Tris, 1M NaCl, pH 7.5. A synthetic substrate Z-L-Lys-SBzl and DTNB (Ellman's reagent) are added to final concentrations of 100 µM each. Absorbance at 405 nm (A405) is recorded at 30 second intervals for 30 minutes using a microplate spectrophotometer. IC50 values are calculated by nonlinear regression of Complement Factor D reaction rates as a function of test compound concentration.
On to `CC(=O)c1nn(CC(=O)N2[C@H]3C[C@]4(C[C@@H]24)CN(C)CCCCCCCc2ccc(Br)nc2NC3=O)c2cnc(-c3cnc(C)nc3)cc12` [Compound T-75], for which the negative logarithm of the IC50 (pIC50) is more than 6.00.

As to `Cc1ncc(-c2cc3c4c(c2)c(C#N)nn4CC(=O)N2[C@H](C(=O)Nc4nc(C(F)(F)F)ccc4C)C[C@@]4(CNC(=O)CCCC=CC3)C[C@@H]24)cn1` [Compound T-133], the negative logarithm of the IC50 (pIC50) was more than 6.00.

In the case of `CC(=O)c1nn2c3c(cc(-c4cnc(C)nc4)cc13)CC=CCCCC(=O)NC[C@@]13C[C@@H](C(=O)Nc4cncc(Br)n4)N(C(=O)C2)[C@@H]1C3` [Compound T-233], the negative logarithm of the IC50 (pIC50) is more than 6.00.

As to `CC(=O)c1nn(CC(=O)N2[C@H]3C[C@]4(C[C@@H]24)CN(C)CCCC=CCc2ccc(Br)nc2NC3=O)c2cnc(-c3cnc(C)nc3)cc12` [Compound T-57], the negative-log IC50 (pIC50) is more than 6.00.

Regarding `CC(=O)c1nn(CC(=O)N2C[C@@]3(F)CNC(=O)C(C)(C)CCCCOCc4ccc(Br)nc4NC(=O)[C@@H]2C3)c2cnc(-c3cnc(C)nc3)cc12` [Compound T-171], the pIC50 was more than 6.00.

For the compound `CC(=O)c1nn(CC(=O)N2[C@H]3C[C@@]4(CNS(=O)(=O)CCC=Cc5ccc(Br)nc5NC3=O)C[C@@H]24)c2ccc(-c3cnc(C)nc3)cc12` [Compound T-9, (41R,43S,45R)-42-(2-(3-acetyl-5-(2-methylpyrimidin-5-yl)-1H-indazol-1-yl)acetyl)-16-bromo-7-thia-42,2,6-triaza-1(2,3)-pyridina-4(3,5)-bicyclo[3.1.0]nexanacycloundecaphan-10-en-3-one 7,7-dioxide], the pIC50 is more than 6.00.

Turning to `Cc1ncc(-c2cc3c4c(c2)c(C(N)=O)nn4CC(=O)N2[C@H](C(=O)Nc4nc(Br)ccc4C)C[C@@]4(CNC(=O)CCCC=CC3)C[C@@H]24)cn1` [Compound T-152], the pIC50 is more than 6.00.

`CC(=O)c1nn(CC(=O)N2C[C@@]3(F)COCCCCOCc4ccc(Br)nc4NC(=O)[C@@H]2C3)c2cnc(-c3cnc(C)nc3)cc12` [Compound T-161]: the pIC50 was more than 6.00.

For the compound `CC(=O)c1nn(CC(=O)N2[C@H]3C[C@@]4(C=CCCC5=NN=C(Cc6ccc(Br)nc6NC3=O)O5)C[C@@H]24)c2cnc(-c3cnc(C)nc3)cc12` [Compound T-47], the negative logarithm of the IC50 (pIC50) was more than 6.00.

Turning to `CC(=O)c1nn(CC(=O)N2C[C@@]3(F)COCCCCCCCc4ccc(Br)nc4NC(=O)[C@@H]2C3)c2ccc(-c3cnc(C)nc3)cc12` [Compound T-106], the negative-log IC50 (pIC50) was more than 6.00.

As to `COc1cc(Br)nc(NC(=O)[C@@H]2C[C@]34CNC(=O)CCCC=CCc5cc(-c6cnc(C)nc6)cc6c(C(C)=O)nn(c56)CC(=O)N2[C@@H]3C4)c1` [Compound T-209], the negative-log IC50 (pIC50) was more than 6.00.

`CC(=O)c1nn(CC(=O)N2[C@H]3C[C@@]4(COCCCCOCc5ccc(Br)nc5NC3=O)C[C@@H]24)c2c(CF)cc(-c3cnc(C)nc3)cc12` [Compound T-78]: the pIC50 is more than 6.00.

On to `Cc1ncc(-c2cc3c4c(c2)c(C(N)=O)nn4CC(=O)N2[C@H](C(=O)Nc4nc(C(F)(F)F)ccc4C)C[C@@]4(COCCCCCCC3)C[C@@H]24)cn1` [Compound T-187], for which the negative-log IC50 (pIC50) was more than 6.00.

In the case of `CC(=O)c1nn2c3c(cc(-c4cnc(C)nc4)cc13)CCCCCCC(=O)NC[C@@]13C[C@@H](C(=O)Nc4ccn(CC(F)(F)F)n4)N(C(=O)C2)[C@@H]1C3` [Compound T-92], the pIC50 is more than 6.00.

Consider `CC(=O)c1nn2c3c(cc(-c4cnc(C)nc4)cc13)C=CCCCCC(=O)NC[C@@]13C[C@@H](C(=O)Nc4nc(C(F)(F)F)ccc4C)N(C(=O)C2)[C@@H]1C3` [Compound T-51], for which the pIC50 is more than 6.00.

On to `CC(=O)c1nn2c3c(cc(-c4cnc(C)nc4)cc13)CCCCC=CCOC[C@@]13C[C@@H](C(=O)Nc4nc(C(F)(F)F)ccc4C)N(C(=O)C2)[C@@H]1C3` [Compound T-101], for which the pIC50 was more than 6.00.

Turning to `CC(=O)c1nn2c3c(cc(-c4cnc(C)nc4)cc13)CCCCCNC(=O)NC[C@@]13C[C@@H](C(=O)Nc4nc(C(F)(F)F)ccc4C)N(C(=O)C2)[C@@H]1C3` [Compound T-238], the negative logarithm of the IC50 (pIC50) is more than 6.00.

Turning to `CC(=O)c1nn(CC(=O)N2[C@H]3C[C@@]4(CNC(=O)C(C)(C)CCCCOCc5ccc(Br)nc5NC3=O)C[C@@H]24)c2ccc(-c3cnc(C)nc3)cc12` [Compound T-117], the negative logarithm of the IC50 (pIC50) is more than 6.00.

`CC(=O)c1cc2n(n1)CC(=O)N1[C@@H](C[C@@]3(C)C[C@@H]13)C(=O)Nc1nc(Br)ccc1COC/C=C\CCNC2=O` [Compound T-15, (18aS,19aR,20aR,Z)-2-acetyl-15-bromo-19a-methyl-6,7,12,17,18a,19,19a,20,20a,23-decahydro-4H-cyclopropa[4,5]pyrrolo[2,1-g]pyrazolo[1,5-k]pyrido[3,2-c][1,5,8,11,14]oxatetraazacyclononadecine-4,18,22(5H,10H)-trione]: the negative logarithm of the IC50 (pIC50) was less than 5.00.

Take `CC(=O)c1nn(CC(=O)N2[C@H]3C[C@@]4(CNC(=O)CCOCc5ccc(Br)nc5NC3=O)C[C@@H]24)c2ccc(-c3cnc(C)nc3)cc12` [Compound T-164]: the pIC50 was more than 6.00.

In the case of `CC(=O)c1nn2c3c(cc(-c4cnc(C)nc4)cc13)CCCCCCC(=O)NC[C@@]13C[C@@H](C(=O)Nc4ccc(F)c(Br)n4)N(C(=O)C2)[C@@H]1C3` [Compound T-213], the pIC50 is more than 6.00.

`COCc1ccc(Br)nc1NC(=O)[C@@H]1C[C@]23CNC(=O)CCCC=CCc4cc(-c5cnc(C)nc5)cc5c(C(C)=O)nn(c45)CC(=O)N1[C@@H]2C3` [Compound T-240]: the negative logarithm of the IC50 (pIC50) is more than 6.00.

For the compound `CC(=O)c1nn(CC(=O)N2[C@H]3C[C@@]4(COCC=CCOCc5ccc(Br)nc5NC3=O)C[C@@H]24)c2c(C)nc(-c3cnc(C)nc3)cc12` [Compound T-193], the pIC50 is more than 6.00.

Consider `CC(=O)c1nn(CC(=O)N2C3CC34CNC(=O)CCC=CCOCc3ccc(Br)nc3NC(=O)[C@@H]2C4)c2ccc(-c3cnc(C)nc3)cc12` (stereo partly drawn) [Compound T-2, (43S)-44-(2-(3-acetyl-5-(2-methylpyrimidin-5-yl)-1H-indazol-1-yl)acetyl)-16-bromo-13-oxa-44,2,6-triaza-1(2,3)-pyridina-4(3,1)-bicyclo[3.1.0]hexanacyclotetradecaphan-10-ene-3,7-dione], for which the pIC50 is more than 6.00.

For the compound `CC(=O)c1nn(CC(=O)N2[C@H]3C[C@@]4(CNC(=O)C(C)(C)C=CCOCc5ccc(C(F)(F)F)nc5NC3=O)C[C@@H]24)c2cnc(-c3cnc(C)nc3)cc12` [Compound T-224], the pIC50 is more than 6.00.

For `CC(=O)c1nn2c3c(cc(-c4cnc(C)nc4)cc13)CCCCCCCCCC[C@@]13C[C@@H](C(=O)Nc4nc(Br)ccc4C)N(C(=O)C2)[C@@H]1C3` [Compound T-109], the pIC50 was more than 6.00.

For the compound `CC(=O)c1nn2c3c(cc(-c4cnc(C)nc4)cc13)CC=CCCCC(=O)NC[C@@]13C[C@@H](C(=O)Nc4cc(C)cc(Br)n4)N(C(=O)C2)[C@@H]1C3` [Compound T-189], the pIC50 was more than 6.00.

Regarding `Cc1ncc(-c2cc3c(C(N)=O)nn4c3c(n2)CCCCCCOC[C@@]23C[C@@H](C(=O)Nc5nc(C(F)(F)F)ccc5C)N(C(=O)C4)[C@@H]2C3)cn1` [Compound T-156], the pIC50 is more than 6.00.

Regarding `CC(=O)c1nn(CC(=O)N2[C@H]3C[C@@]4(CCCCCCCN(C)Cc5ccc(Br)nc5NC3=O)C[C@@H]24)c2c(CF)cc(-c3cnc(C)nc3)cc12` [Compound T-97], the negative logarithm of the IC50 (pIC50) is more than 6.00.

With `CC(=O)c1nn2c3c(cc(-c4cnc(C)nc4)cc13)CCCCCCC(=O)NC[C@@]13C[C@@H](C(=O)NCc4cccc(Cl)c4F)N(C(=O)C2)[C@@H]1C3` [Compound T-86], the pIC50 is more than 6.00.

As for `CC(=O)c1nn(CC(=O)N2C[C@@]3(F)COCCCCCCCCc4ccc(Br)nc4NC(=O)[C@@H]2C3)c2ccc(-c3cnc(C)nc3)cc12` [Compound T-194], the pIC50 is more than 6.00.

Take `CC(=O)c1nn(CC(=O)N2[C@H]3C[C@@]4(COC/C=C/COCc5ccc(Br)nc5NC3=O)C[C@@H]24)c2cnc(-c3cnc(C)nc3)cc12` [Compound T-44]: the negative-log IC50 (pIC50) was more than 6.00.

In the case of `CC(=O)c1nn(CC(=O)N2[C@H]3C[C@]4(C[C@@H]24)CN(C)CCCCOCc2ccc(Br)nc2NC3=O)c2ccc(-c3cnc(C)nc3)cc12` [Compound T-7, (41R,43S,45R)-42-(2-(3-acetyl-5-(2-methylpyrimidin-5-yl)-1H-indazol-1-yl)acetyl)-16-bromo-6-methyl-11-oxa-42,2,6-triaza-1(2,3)-pyridina-4(3,5)-bicyclo[3.1.0]hexanacyclododecaphan-3-one], the negative-log IC50 (pIC50) was more than 6.00.

Turning to `CC(=O)c1nn(CC(=O)N2[C@H]3C[C@]4(C[C@@H]24)CN(C)CCCC=CCc2ccc(Br)nc2NC3=O)c2ccc(-c3cnc(C)nc3)cc12` [Compound T-65], the pIC50 is more than 6.00.

Turning to `CC(=O)c1nn(CC(=O)N2[C@H]3C[C@]4(C[C@@H]24)CN(C)CCCCC=CCc2ccc(Br)nc2NC3=O)c2cnc(-c3cnc(C)nc3)cc12` [Compound T-56], the pIC50 was more than 6.00.

`CC(=O)c1nn2c3c(cc(-c4cnc(C)nc4)cc13)CCCCC=CCc1cccc(n1)OC[C@@]13C[C@@H](C(=O)Nc4nc(Br)ccc4C)N(C(=O)C2)[C@@H]1C3` [Compound T-137]: the negative-log IC50 (pIC50) is more than 6.00.

Turning to `CC(=O)c1nn(CC(=O)N2[C@H]3C[C@@]4(CNC(=O)C(C)(C)CCCCOCc5ccc(Br)nc5NC3=O)C[C@@H]24)c2cnc(-c3cnc(C)nc3)cc12` [Compound T-118], the pIC50 is more than 6.00.

Turning to `CC(=O)c1nn2c3c(cc(-c4cnc5cc(C6CC6)nn5c4)cc13)CCCCCCC(=O)NC[C@@]13C[C@@H](C(=O)Nc4nc(C(F)(F)F)ccc4C)N(C(=O)C2)[C@@H]1C3` [Compound T-258], the pIC50 was more than 6.00.

With `CC(=O)c1nn2c3c(cc(-c4cnc(C)nc4)cc13)CCCCCCC(=O)NC[C@@]13C[C@@H](C(=O)Nc4cccc(OC(F)(F)F)c4F)N(C(=O)C2)[C@@H]1C3` [Compound T-223], the negative logarithm of the IC50 (pIC50) is more than 6.00.

`Cc1ncc(-c2cc3c(C#N)nn4c3c(n2)CCCCCCOC[C@@]23C[C@@H](C(=O)Nc5nc(C(F)(F)F)ccc5C)N(C(=O)C4)[C@@H]2C3)cn1` [Compound T-155]: the pIC50 is more than 6.00.
